From patent publication US9597531B2, “Selective, lipophilic, and long-acting beta agonist monotherapeutic formulations and methods for the cosmetic treatment of adiposity and contour bulging” (NEOTHETICS, INC., priority 2010, dated 2017)
Like-named read-outs stand apart in the source and are kept apart here.

Columns and labels:
[1] = minipig, in vivo
[2] = compared with albuterol; cited from earlier work
[3] = Pharmacokinetics and bioavailability in minipigs after SC administration (Example 8); assay type: in vivo, Gottingen minipig; details: for AUC(0-inf) / Cmax / half-life / Tmax: Gottingen, minipig, plasma, 4 ug/kg
Method: Plasma concentrations of salmeterol were monitored in a male and a female Gottingen minipig after SC administration of salmeterol xinafoate. SC dose of 4 μg/kg salmeterol xinafoate was administered as a single bolus dose. […] Samples were processed to plasma by centrifugation under refrigeration and stored frozen at approximately −70° C. (±15° C.) until analysis.
Other calculations were done using Microsoft Excel® XP. The bioanalytical and pharmacokinetic data were reported to 3 significant figures.

[4] = tested on: subcutaneous fat thickness; assay: Subcutaneous fat thickness by 2D-ultrasound (Example 7)
inguinal fat pad = assay: Inguinal fat pad weight after SC injection into the rat inguinal fat pad (Example 6); assay type: in vivo, Sprague-Dawley rats
Method: Mature male Sprague-Dawley rats weighing approximately 500 g were lightly anesthetized with 4% isoflurane. Test article injections (drug vehicle, different doses of salmeterol xinafoate) were injected SC into the right inguinal fat pad in a volume of 0.4 mL. An equal volume of drug vehicle was injected into the left inguinal fat pad. […] Approximately 24 hours after the last injection, rats were anesthetized, sacrificed and the right and left fat pads harvested and weighed. The change in fat pad weight (Right vs. Left) was calculated and expressed as a percent change in inguinal fat pad weight (% change IFP=(Right side−Left side)×100/Left side).

[5] = SC single site 4 μg/kg, female 2-0623
[6] = SC single site 4 μg/kg, male 1-0771

Compound: OCc1cc(C(O)CNCCCCCCOCCCCc2ccccc2)ccc1O (racemic) [Salmeterol, ±2-(hydroxymethyl)-4-[1-hydroxy-2-[6-(4-phenylbutoxy)hexylamino]ethyl]-phenol]
- salmeterol partition ratio (average plasma Cmax subcutaneous / average plasma Cmax intravenous) ([1]; both, Gottingen): 0.1
- Cmax ([1]; 0.004 ug/kg): 0 ng/mL
- plasma concentrations observed ([1]; sc): Scarce or no plasma concentrations
- lipophilicity relative to albuterol [2]: at least 10,000 times
- AUC(0-inf) [3, 5]: 1.67 ng·h/mL
- Cmax [3, 5]: 0.433 ng/mL
- half-life [3, 5]: 494 min
- Tmax ([3]; SC single site 4 μg/kg, female 2-0623, read-out: Tmax): 30 min
- AUC(0-inf) [3, 6]: 2.26 ng·h/mL
- Cmax [3, 6]: 0.564 ng/mL
- half-life [3, 6]: 684 min
- Tmax ([3]; SC single site 4 μg/kg, male 1-0771, read-out: Tmax): 20 min
- tlast [3, 5]: 24.0 h
- tlast [3, 6]: 24.0 h

Compound: OCc1cc(C(O)CNCCCCCCOCCCCc2ccccc2)ccc1O (stereo not shown) [salmeterol xinafoate]
- absorption following SC administration ([3]; SC 4 μg/kg): rapidly absorbed
- Tmax ([3]; both sexes, SC 4 μg/kg, male and female, read-out: Tmax values): 20 to 30 min
- evaluation of the injection sites ([4]; SC twice per week, 0.05, 0.5 or 5 μg per site): did not reveal any adverse reactions
- fat thickness (2D-ultrasound) ([4]; SC twice per week, FIG. 2): dose-related changes in fat thickness
- increase of fat thickness ([4]; highest dose (5 ng)): approximately 3%
- reduction of total fat thickness ([4]; lowest doses (0.05 and 0.5 ng)): 7-9%
- change in inguinal fat pad weight (inguinal fat pad; 0.1, 1, 10 or 100 μg SC into fat pad on 3 consecutive days, right vs left (vehicle) pad, FIG. 1): dose-related reduction in fat pad weight
- staining and histological evaluation of the tissue (inguinal fat pad; inguinal fat pad after SC injection, data not shown): reduction in fat cell number and size
